Test results reported in patent US11674959B2, “Methods for identifying and preparing pharmaceutical agents for activating Tie1 and/or Tie2 receptors” (The Johns Hopkins University, priority 2017, dated 2023).

Experiments:
Tie2 = Tie2 activation in vivo, retinopathy of prematurity (ROP) mouse model
Description: To investigate the effects of AXT107 on Tie2 activation in vivo, retinopathy of prematurity (ROP) mouse model was used. In this system, P7 pups are placed in 75% O2 for five days, resulting in a loss of retinal capillary density from hyperoxia and a rapid induction of neovascularization upon the pup's return to normoxic conditions. […] Increased levels of Ang2 in the vitreous contribute to vessel leakage and macular edema in various retinopathies.

[1] = test system: VEGFR2, cMet, PDGFRβ, and IGF1R; conditions: VEGFR2, c-Met, literature; cited from earlier work
MEC monolayers = test: FITC Transwell permeability assay; type: cell-based, human
Experimental: The integrity of these junctions is also important for the regulation of monolayer permeability by controlling the size of intercellular openings. The effect of the AXT107 on EC permeability was further investigated by the transendothelial diffusion of FITC-labeled dextran across MEC monolayers seeded onto permeable Transwell® substrates.
Human dermal microvascular endothelial cells (Lonza) were maintained at 37° C. and 5% CO2 in EBM-2MV medium (Lonza) and used between passages two through seven. Where applicable, cells were serum starved in EBM-2 medium (Lonza) with no supplements. For FITC-Dextran permeability assays phenol red-free media were used to avoid auto-fluorescence. AXT107 were manufactured at New England Peptide by […], lyophilized, and dissolved in 100% DMSO.
Transwell, twenty-four-well inserts (Corning) were coated with 7.5 μg/cm^2 FN1 for two hours at 37° C., aspirated, and then dried for thirty minutes at room temperature. Wells were then seeded with 7.5×10^4 MECs in 100 μl of EBM-2 media (without phenol red) and allowed to settle for thirty minutes at room temperature. 1 ml of EGM-2 media was then added to the bottom chamber and an additional 200 μl to the top chamber. The plate was incubated for twenty-four hours at 37° C. after which the media was aspirated and an additional 7.5×10^4 MECs were plated in each well as described above. After forty-eight hours at 37° C., the media was aspirated from both chambers and the cells were washed twice in dPBS containing Ca^2+ and Mg^2+, once with EBM-2 media (without phenol red) and serum starved in EBM-2 media applied to both chambers for two hours at 37° C. After this incubation, 100 μM AXT107 or an equivalent amount of DMSO vehicle was added and incubated for an additional ninety minutes. In the top chamber, the cells were then treated with 200 ng/ml Ang2, 100 ng/ml VEGFA, both, or PBS control and in the bottom chamber, the cells were then treated with 25 μg/ml FITC-Dextran (40 kDa MW). AXT107 was also added in both chambers to maintain a concentration of 100 μM. After three hours, 10 μl was removed from the top chamber of each well and mixed with 90 μl of water in a clear bottom, 96-well plate. Fluorescence values for each sample were calculated using a Perkin Elmer plate reader.

## LRRFSTAPFAFIDINDVINF [AXT107]
Tie2
  Activation of Tie2 by Ang2 in vivo: potentiates the activation of Tie2 by Ang2 both in vitro and in vivo
[1]
  Receptor phosphorylation and downstream signals of RTKs: significantly decreases receptor phosphorylation and downstream signals
MEC monolayers; 100 μM AXT107 pre-incubation + Ang2, vs growth factor alone
  FITC-dextran diffusion into the top chamber: significant decrease in FITC-dextran diffusion into the top chamber
MEC monolayers; 100 μM AXT107 pre-incubation + Ang2 in combination with VEGF, vs growth factors alone
  FITC-dextran diffusion into the top chamber: significant decrease in FITC-dextran diffusion into the top chamber
MEC monolayers; VEGF in the presence vs absence of peptide
  FITC-dextran diffusion into the top chamber: similar, but non-significant trend
MEC monolayers; single agent alone, FITC-Dextran 40 kDa, three hours
  FITC-dextran diffusion across the monolayer, agent alone: influenced FITC-dextran diffusion across the monolayer
